Measurements reported in patent publication US9260429B2, “Pyrido[3,4-B]indoles and methods of use” (Medivation Technologies, Inc., priority 2008, dated 2016).

Key:
[1] = target: T1, human recombinant histamine H2 receptor (Homo sapiens, UniProt P25021); experiment: Histamine H2 radioligand binding ([125I]Aminopotentidine); conditions: 1 μM; inhibition of specific [125I]Aminopotentidine binding; read-out: Binding data (Percentage Inhibition) Histamine Binding (1 μM) H2
T1 construct: expressed in transfected cells; host or cells: CHO-K1 cells
Procedure, shortened: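 Membranes of CHO-K1 cells expressing human H2 receptor incubated with 0.1 nM [125I]aminopotentidine, 120 min, 25 °C, 50 mM phosphate pH 7.4; nonspecific binding defined with 3 μM tiotidine.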

[2] = target: T2, human recombinant serotonin (5-Hydroxytryptamine) 5-HT2A receptor (Homo sapiens, UniProt P28223); experiment: Serotonin 5-HT2A radioligand binding ([3H]Ketanserin); conditions: 1 h; read-out: Percent Inhibition of ligand binding Serotonin (1 μM ligand concentration) 5-HT2A
T2 construct: expressed in transfected cells; host or cells: CHO-K1 cells
Procedure, shortened: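 Membranes from CHO-K1 cells expressing the receptor, in 50 mM Tris-HCl pH 7.4, incubated 60 min at 25° C with 0.5 nM [3H]Ketanserin; 1 μM Mianserin defines non-specific binding. Filtration and counting; values are % inhibition of specific binding at 1 μM or lower, 1% DMSO.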

[3] = target: T3, human recombinant serotonin (5-Hydroxytryptamine) 5-HT6 receptor (Homo sapiens, UniProt P50406); experiment: Serotonin 5-HT6 radioligand binding ([3H]LSD); conditions: 2 h; read-out: Percent Inhibition of ligand binding Serotonin (1 μM ligand concentration) 5-HT6
T3 construct: expressed in transfected cells; host or cells: human HeLa cells
Procedure, shortened: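 Human 5-HT6 receptor expressed in HeLa cells, in Tris-HCl pH 7.4 with 150 mM NaCl, ascorbic acid and BSA. Compounds at 1 μM or lower (1% DMSO) incubated 120 min at 37° C with 1.5 nM [3H]LSD. Non-specific binding defined with serotonin; filter counting gives % inhibition of specific binding.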

[4] = target: T4, human recombinant adrenergic α2A receptor (Homo sapiens, UniProt P08913); experiment: Adrenergic α2A radioligand binding ([3H]MK-912); conditions: 1 h; read-out: Percent Inhibition of ligand binding Adrenergic (1 μM ligand conc.) α2A
T4 construct: expressed in transfected cells; host or cells: insect Sf9 cells
T4 sequence (P08913 1-465): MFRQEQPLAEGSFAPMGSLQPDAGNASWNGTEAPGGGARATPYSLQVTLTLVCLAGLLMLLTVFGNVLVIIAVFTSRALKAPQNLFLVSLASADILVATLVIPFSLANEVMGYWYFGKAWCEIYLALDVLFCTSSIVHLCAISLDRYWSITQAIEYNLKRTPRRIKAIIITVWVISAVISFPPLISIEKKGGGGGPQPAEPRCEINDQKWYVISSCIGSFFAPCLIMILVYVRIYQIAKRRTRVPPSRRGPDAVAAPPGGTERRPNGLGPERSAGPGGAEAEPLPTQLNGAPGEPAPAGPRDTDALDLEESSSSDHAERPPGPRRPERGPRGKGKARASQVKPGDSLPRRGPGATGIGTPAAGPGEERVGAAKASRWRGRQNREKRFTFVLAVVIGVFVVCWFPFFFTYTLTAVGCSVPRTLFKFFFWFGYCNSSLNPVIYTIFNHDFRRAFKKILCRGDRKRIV
Method: To evaluate in radioligand binding assays the activity of compounds of the invention, human recombinant adrenergic α2A receptor expressed in insect Sf9 cells (Uhlen S et al. J Pharmacol Exp Ther. 271:1558, 1994) in a modified Tris-HCl buffer (50 mM Tris-HCl, pH 7.4, 12.5 mM MgCl2, 2 mM EDTA) was used. Compounds of invention were incubated with 1 nM [^3H]MK-912 for 60 minutes at 25° C. MK912 is (2S-trans)-1,3,4,5′,6,6′,7,12b-octahydro-1′,3′-dimethyl-spiro[2H-benzofuro[2,3-a]quinolizine-2,4′(1′H)-pyrimidin]-2′(3′H)-one hydrochloride Non-specific binding was estimated in the presence of 10 μM WB-4101 (2-(2,6-Dimethoxyphenoxyethyl)aminomethyl-1,4-benzodioxane hydrochloride). Receptor proteins were filtered and washed, the filters were then counted to determine [^3H]MK-912 specifically bound. Compounds were screened at 1 μM or lower, using 1% DMSO as vehicle. Biochemical assay results are presented as the percent inhibition of specific binding in Table 4.

T3 sequence (P50406 whole entry): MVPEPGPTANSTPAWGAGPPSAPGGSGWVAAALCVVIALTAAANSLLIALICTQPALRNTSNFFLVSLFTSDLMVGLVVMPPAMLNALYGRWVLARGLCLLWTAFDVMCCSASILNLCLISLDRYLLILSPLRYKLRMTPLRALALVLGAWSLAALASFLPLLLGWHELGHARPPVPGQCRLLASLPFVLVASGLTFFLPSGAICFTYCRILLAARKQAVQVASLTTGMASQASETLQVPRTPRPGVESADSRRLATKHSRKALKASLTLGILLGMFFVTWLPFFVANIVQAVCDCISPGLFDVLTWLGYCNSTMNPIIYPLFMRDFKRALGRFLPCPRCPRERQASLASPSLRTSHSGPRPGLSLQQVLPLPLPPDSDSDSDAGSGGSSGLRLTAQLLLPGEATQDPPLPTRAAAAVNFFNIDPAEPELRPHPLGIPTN
T2 sequence (P28223 whole entry): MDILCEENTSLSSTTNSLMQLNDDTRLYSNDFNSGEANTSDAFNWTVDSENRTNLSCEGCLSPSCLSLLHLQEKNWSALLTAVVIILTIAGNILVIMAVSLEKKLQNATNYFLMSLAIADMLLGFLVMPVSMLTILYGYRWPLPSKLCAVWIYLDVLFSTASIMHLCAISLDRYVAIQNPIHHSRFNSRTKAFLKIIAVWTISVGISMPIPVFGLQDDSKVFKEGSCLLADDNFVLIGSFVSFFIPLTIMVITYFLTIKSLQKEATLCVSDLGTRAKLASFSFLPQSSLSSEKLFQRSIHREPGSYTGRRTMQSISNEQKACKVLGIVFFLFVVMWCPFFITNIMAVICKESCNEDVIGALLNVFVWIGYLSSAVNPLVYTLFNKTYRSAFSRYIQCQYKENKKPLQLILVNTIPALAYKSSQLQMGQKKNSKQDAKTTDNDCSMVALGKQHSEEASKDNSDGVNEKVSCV
T1 sequence (P25021 whole entry): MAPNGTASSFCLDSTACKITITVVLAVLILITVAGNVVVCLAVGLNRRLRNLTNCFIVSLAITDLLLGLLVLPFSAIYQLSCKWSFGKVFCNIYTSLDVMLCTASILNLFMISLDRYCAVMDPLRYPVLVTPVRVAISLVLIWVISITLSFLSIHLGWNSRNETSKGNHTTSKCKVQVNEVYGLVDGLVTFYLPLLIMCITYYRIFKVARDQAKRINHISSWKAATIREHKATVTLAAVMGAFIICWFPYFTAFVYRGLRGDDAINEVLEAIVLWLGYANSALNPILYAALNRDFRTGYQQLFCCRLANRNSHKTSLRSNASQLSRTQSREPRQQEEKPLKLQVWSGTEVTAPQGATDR

SMILES | inhibition at 1 µM [1] | inhibition at 1 µM [2] | inhibition at 1 µM [3] | inhibition at 1 µM [4]
CCC1c2c(c3cc(Cl)ccc3n2CC(C)(O)c2ccc(F)cc2)CCN1C (centres unmarked) [Compound 79] | 20% | 62% | 27% | 92%
CC1c2c(c3cc(Cl)ccc3n2C#Cc2ccc(Cl)cc2)CCN1C (centres unmarked) [Compound 132, 6-chloro-9-((4-chlorophenyl)ethynyl)-1,2-dimethyl-2,3,4,9-tetrahydro-1H-pyrido[3,4-b]indole] | 57% | 80% | 17% | 13%
CC1c2c(c3cc(Cl)ccc3n2C#Cc2ccc(F)cc2)CCN1C (centres unmarked) [Compound 128] | 53% | 95% | 90% | 81%
CN1CCc2c(n(CC(=O)O)c3ccc(Cl)cc23)C1 [Compound 52, 2-(6-chloro-1,2,3,4-tetrahydro-2-methylpyrido[3,4-b]indol-9-yl)acetic acid] | -5% | -11% | -4% | 4%
CN1CCc2c(n(CC(=O)N(C)C)c3ccc(Cl)cc23)C1 [Compound 16, 2-(6-chloro-1,2,3,4-tetrahydro-2-methylpyrido[3,4-b]indol-9-yl)-N,N-dimethylacetamide] | 1% | 10% | 9% | -4%
Cc1ccc(C(O)Cn2c3c(c4cc(C)ccc42)CCN(C)C3)cc1 (centres unmarked) [Compound 72] | 19% | 96% | 61% | 93%
CN1CCc2c(n(CC(=O)N3CCCC3)c3ccc(Cl)cc23)C1 [Compound 40, 2-(6-chloro-1,2,3,4-tetrahydro-2-methylpyrido[3,4-b]indol-9-yl)-1-(pyrrolidin-1-yl)ethanone] | 4% | 5% | 6% | 1%
CCC1c2c(c3cc(C)ccc3n2C(=O)Cc2ccc(F)cc2)CCN1C (centres unmarked) [Compound 159] | 20% | 89% | 46% | 71%
COc1ccc(C(O)Cn2c3c(c4cc(C)ccc42)CCN(C)C3)cc1OC (centres unmarked) [Compound 66] | 1% | 51% | 5% | 55%
Cc1ccc2c(c1)c1c(n2C(=O)Cc2ccc(Cl)cc2)C(c2ccccc2)N(C)CC1 (centres unmarked) [Compound 163] | 27% | 98% | 89% | 96%
C/C(=C\n1c2c(c3cc(C)ccc31)CCN(C)C2c1ccccc1)c1ccc(Cl)cc1 (centres unmarked) [Compound 164, 9-(2-(4-chlorophenyl)prop-1-enyl)-2,6-dimethyl-1-phenyl-2,3,4,9-tetrahydro-1H-pyrido[3,4-b]indole] | 25% | 95% | 16% | 58%
